PMC10095442, “Intelligent De Novo Design of Novel Antimicrobial Peptides against Antibiotic-Resistant Bacteria Strains” (International Journal of Molecular Sciences, 2023)
Residues, ends and D or L forms follow the SMILES beside them.

How the values were obtained:
[1] = test system: carbapenem-susceptible P. aeruginosa (S07-10-0059); type: cell-based, Pseudomonas aeruginosa; conditions: carbapenem-susceptible (S07-10-0059)
Protocol: (§1) MIC assays were conducted to determine the antibacterial spectrum of these peptides. MIC is defined as the minimum concentration of a reagent, viz., peptide, in this study, required to inhibit bacterial growth after overnight incubation. Microbial strains were cultured in an L.B. medium, and midlogarithmic-phase organisms were used in the antibacterial assays. All bacteria were inoculated in an L.B. medium (approximately 10^5 CFU/mL), and MIC assays were performed with various concentrations of each peptide. All activity measurements were conducted at least three times.

[2] = test system: carbapenem-resistant P. aeruginosa (M06-06-0213); type: cell-based, Pseudomonas aeruginosa; conditions: P. aeruginosa M06-06-0213 (carbapenem-resistant clinical isolate); L.B. medium, approx. 10^5 CFU/mL, overnight incubation; at least three times
Protocol: as §1

[3] = test system: methicillin-resistant S. aureus (N07-10-0043); type: cell-based, Staphylococcus aureus; conditions: S. aureus MRSA N07-10-0043 (methicillin-resistant clinical isolate); L.B. medium, approx. 10^5 CFU/mL, overnight incubation; at least three times
Protocol: as §1

[4] = test system: methicillin-susceptible S. aureus (S01-10-0202); type: cell-based, Staphylococcus aureus; conditions: methicillin-susceptible (S01-10-0202)
Protocol: as §1

Measured: Antibacterial activity (MIC)

CC(C)[C@@H]1NC(=O)[C@H](CCCNC(=N)N)NC(=O)[C@H](Cc2ccccc2)NC(=O)[C@@H](NC(=O)[C@H](Cc2c[nH]c3ccccc23)NC(=O)[C@H](CCCNC(=N)N)NC(=O)[C@@H](N)CCCNC(=N)N)CSSC[C@@H](C(=O)N[C@@H](CCCNC(=N)N)C(N)=O)NC(=O)[C@H](CCCCN)NC(=O)[C@H](CCCNC(=N)N)NC(=O)[C@H](Cc2ccc(O)cc2)NC(=O)[C@@H]2CSSC[C@H](NC1=O)C(=O)N[C@@H](Cc1ccc(O)cc1)C(=O)N[C@@H](CCCNC(=N)N)C(=O)NCC(=O)N[C@@H](Cc1ccccc1)C(=O)N2 [polyphemusin I] (HELM PEPTIDE1{R.R.W.C.F.R.V.C.Y.R.G.F.C.Y.R.K.C.R.[am]}$PEPTIDE1,PEPTIDE1,4:R3-17:R3|PEPTIDE1,PEPTIDE1,8:R3-13:R3$$$V2.0; N-terminus and C-terminus assumed)
>50 µg/mL: all assays above
